{"source": "patent US11007176B2", "about": "“Use of actin depolymerizing agents for the treatment of anxiety disorders” (priority 2019, dated 2021)", "test_system": "Atf3^−/− mice", "assay": "Trace fear conditioning (contextual and tone freezing tests) after intracranial infusion of cytochalasin D", "format": "in vivo", "experimental": "The habituation session was performed similarly to the DFC. The mice were divided into three groups (WT: n=15; Atf3^+/−: n=10; Atf3^−/−: n=16) and placed in the conditioning chamber for 15 min per day for 3 days. On Day 4, they underwent three trace fear conditioning trials: a 20-s tone (6000 Hz, 85 dB; CS), followed by a 10-s time interval, and then a 1-s foot shock (2 mA; US). Twenty-four hours later, the mice were placed in the same conditioning chamber for 6 min with neither tone nor foot shock for contextual testing. One hour after the contextual test, the mice were placed in a novel chamber for a tone test, which was performed as follows: 1 min with neither tone nor foot shock followed by a 6-min tone (6000 Hz, 85 dB). Freezing behaviors were recorded and analyzed using the FreezeScan software, and the freezing percentage was calculated using the aforementioned formula.\nAt 14 weeks of age, mice (Atf3^+/−: n=5, Atf3^−/−: n=9) were anesthetized using a mixture of ketamine, xylazine, and saline (0.55 mL/25 g) in accordance with the regulations of the Lab Animal Center, Tzu Chi University, Taiwan. Mouse heads were restrained in stereotaxic apparatus to ensure movement restriction during surgery. […] After surgery, the mice were placed in their respective cages to recover for 4 days and were then tested for TFC. Habituation was performed as described in the trace fear conditioning protocol. Using a Hamilton syringe, the actin depolymerizing agent cytochalasin D (Sigma-Aldrich, MO, USA, catalogue No. C8273), dissolved in dimethyl sulfoxide at a concentration of 25 μg/μL, was infused at a rate of 0.5 μL/min for 1 min immediately after fear conditioning on Day 4. Twenty-four hours later, contextual and tone testing was performed as previously described. A few mice were unable to perform the tasks because of loss of mobility after surgery; the data for these mice are not included. Mice were transcardially perfused, and their brains were incubated in Golgi-Cox staining solution.", "note": "Entries after “also recorded” stand apart in the source; their conditions may differ."}
{"smiles": "C=C1[C@@H](C)[C@H]2[C@H](Cc3ccccc3)NC(=O)[C@]23[C@H](OC(C)=O)/C=C/[C@@](C)(O)C(=O)[C@@H](C)C/C=C/[C@H]3[C@@H]1O", "note": "[cytochalasin D]", "values": [{"measurement": "Freezing percentage to context", "setting": "Atf3^−/− mice, cytochalasin D 25 μg/μL in DMSO infused at 0.5 μL/min for 1 min immediately after trace fear conditioning, contextual test 24 h later, compared with Atf3^−/− mice treated with saline (FIG. 5G)", "result": "significantly lower"}, {"measurement": "Freezing percentage to tone", "setting": "Atf3^−/− mice, cytochalasin D 25 μg/μL in DMSO infused at 0.5 μL/min for 1 min immediately after trace fear conditioning, tone test 24 h later, compared with Atf3^−/− mice treated with saline (FIG. 5H)", "result": "significantly lower"}, {"measurement": "Freezing behavior (fear phenotype) of Atf3^−/− mice", "setting": "hippocampal / intracranial infusion of cytochalasin D, summary statement, context or tone test not specified", "result": "reversed the phenotype of Atf3^−/− mice; also recorded: reduced the freezing behavior of the Atf3^−/− mice to a wild-type mouse level"}]}
